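1) Cells in 96-well plates. 2) Compound, 48 h, 5 concentrations. 3) Linear interpolation between surrounding doses. 4) Unreached endpoint = highest concentration. Abbreviation: GI50, concentration required for 50% inhibition of growth.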 Activity calls are given as the source filed them. Rule as the data show it: active = GI50 up to about 1.1 µM and inactive = higher.
Columns and labels:
Experiment in all cases: NCI tumour cell line growth inhibition, 48 h
786-0 = tested on: 786-0
A498 = tested on: A498
A549 = tested on: A549
ACHN = tested on: ACHN
CAKI-1 = tested on: CAKI-1
CCRF-CEM = tested on: CCRF-CEM
COLO 205 = tested on: COLO 205
DMS-273 = tested on: DMS-273
EKVX = tested on: EKVX
HCT-116 = tested on: HCT-116
HCT-15 = tested on: HCT-15
HL-60 = tested on: HL-60
HOP-62 = tested on: HOP-62
HOP-92 = tested on: HOP-92
HT-29 = tested on: HT-29
IGROV-1 = tested on: IGROV-1
K562 = tested on: K562
KM-20L2 = tested on: KM-20L2
KM12 = tested on: KM12
LOX IMVI = tested on: LOX IMVI
LXFL 529 = tested on: LXFL 529
M14 = tested on: M14
M19-MEL = tested on: M19-MEL
MOLT-4 = tested on: MOLT-4
NCI-H226 = tested on: NCI-H226
NCI-H23 = tested on: NCI-H23
NCI-H460 = tested on: NCI-H460
NCI-H522 = tested on: NCI-H522
OVCAR-3 = tested on: OVCAR-3
OVCAR-4 = tested on: OVCAR-4
OVCAR-5 = tested on: OVCAR-5
OVCAR-8 = tested on: OVCAR-8
RPMI-8226 = tested on: RPMI-8226
RXF 393 = tested on: RXF 393
RXF 631 = tested on: RXF 631
SF-268 = tested on: SF-268
SF-295 = tested on: SF-295
SF-539 = tested on: SF-539
SK-MEL-28 = tested on: SK-MEL-28
SK-MEL-2 = tested on: SK-MEL-2
SK-MEL-5 = tested on: SK-MEL-5
SK-OV-3 = tested on: SK-OV-3
SN12C = tested on: SN12C
SNB-19 = tested on: SNB-19
SNB-75 = tested on: SNB-75
SNB-78 = tested on: SNB-78
SR = tested on: SR
SW-620 = tested on: SW-620
TK-10 = tested on: TK-10
U-251 = tested on: U-251
UACC-257 = tested on: UACC-257
UACC-62 = tested on: UACC-62
UO-31 = tested on: UO-31
XF498 = tested on: XF498
DMS-114 = tested on: DMS-114
DLD-1 = tested on: DLD-1
HCC 2998 = tested on: HCC 2998
HOP-18 = tested on: HOP-18
Malme-3M = tested on: Malme-3M

In the case of `CC(C)=NNC(=S)NC12CC3CC(CC(C3)C1)C2`, the GI50 (786-0) is reported as > 100 µM (inactive), the GI50 (A498) is reported as > 100 µM (inactive) and the GI50 (A549) is reported as > 100 µM (inactive). For the same compound, the GI50 (ACHN) was > 100 µM (inactive), the GI50 (CAKI-1) was > 100 µM (inactive) and the GI50 (CCRF-CEM) was > 100 µM (inactive). For the same compound, the GI50 (COLO 205) was > 100 µM (inactive), the GI50 (DMS-273) was > 100 µM (inactive) and the GI50 (EKVX) was > 100 µM (inactive). For the same compound, the GI50 (HCT-116) was > 100 µM (inactive), the GI50 (HCT-15) was greater than 100 µM and the GI50 (HL-60) was > 100 µM (inactive). For the same compound, the GI50 (HOP-62) was > 100 µM (inactive), the GI50 (HOP-92) was > 100 µM (inactive) and the GI50 (HT-29) was > 100 µM (inactive). The GI50 (IGROV-1) was > 100 µM (inactive), the GI50 (K562) was > 100 µM (inactive) and the GI50 (KM-20L2) was > 100 µM (inactive). The GI50 (KM12) was > 100 µM (inactive), the GI50 (LOX IMVI) was > 100 µM (inactive) and the GI50 (LXFL 529) was > 100 µM (inactive). For the same compound, the GI50 (M14) was > 100 µM (inactive), the GI50 (M19-MEL) was > 100 µM (inactive) and the GI50 (MOLT-4) was > 100 µM (inactive). The GI50 (NCI-H226) was > 100 µM (inactive), the GI50 (NCI-H23) was > 100 µM (inactive) and the GI50 (NCI-H460) was > 100 µM (inactive). The GI50 (NCI-H522) was > 100 µM (inactive), the GI50 (OVCAR-3) was > 100 µM (inactive) and the GI50 (OVCAR-4) was > 100 µM (inactive). For the same compound, the GI50 (OVCAR-5) was > 100 µM (inactive), the GI50 (OVCAR-8) was > 100 µM (inactive) and the GI50 (RPMI-8226) was > 100 µM (inactive). The GI50 (RXF 393) was > 100 µM (inactive), the GI50 (RXF 631) was > 100 µM (inactive) and the GI50 (SF-268) was > 100 µM (inactive). The GI50 (SF-295) was > 100 µM (inactive), the GI50 (SF-539) was > 100 µM (inactive) and the GI50 (SK-MEL-28) was > 100 µM (inactive). The GI50 (SK-MEL-2) was > 100 µM (inactive), the GI50 (SK-MEL-5) was > 100 µM (inactive) and the GI50 (SK-OV-3) was > 100 µM (inactive). For the same compound, the GI50 (SN12C) was > 100 µM (inactive), the GI50 (SNB-19) was > 100 µM (inactive) and the GI50 (SNB-75) was > 100 µM (inactive). For the same compound, the GI50 (SNB-78) was > 100 µM (inactive), the GI50 (SR) was > 100 µM (inactive) and the GI50 (SW-620) was > 100 µM (inactive). The GI50 (TK-10) was > 100 µM (inactive), the GI50 (U-251) was > 100 µM (inactive) and the GI50 (UACC-257) was > 100 µM (inactive). The GI50 (UACC-62) was > 100 µM (inactive), the GI50 (UO-31) was > 100 µM (inactive) and the GI50 (XF498) was > 100 µM (inactive).

With `O=P(O)(O)C1CCCC(P(=O)(O)O)N1` (stereo unspecified) the GI50 (A498) was > 100 µM (inactive), the GI50 (A549) was > 100 µM (inactive) and the GI50 (ACHN) was > 100 µM (inactive). For the same compound, the GI50 (CCRF-CEM) was > 100 µM (inactive), the GI50 (DMS-114) was > 100 µM (inactive) and the GI50 (DMS-273) was > 100 µM (inactive). For the same compound, the GI50 (EKVX) was > 100 µM (inactive), the GI50 (HCT-116) was > 100 µM (inactive) and the GI50 (HL-60) was > 100 µM (inactive). The GI50 (HOP-62) was > 100 µM (inactive), the GI50 (HOP-92) was > 100 µM (inactive) and the GI50 (HT-29) was > 100 µM (inactive). The GI50 (IGROV-1) was > 100 µM (inactive), the GI50 (KM-20L2) was > 100 µM (inactive) and the GI50 (KM12) was > 100 µM (inactive). For the same compound, the GI50 (M14) was > 100 µM (inactive), the GI50 (M19-MEL) was > 100 µM (inactive) and the GI50 (MOLT-4) was > 100 µM (inactive). The GI50 (NCI-H226) was > 100 µM (inactive), the GI50 (NCI-H23) was > 100 µM (inactive) and the GI50 (NCI-H460) was > 100 µM (inactive). The GI50 (NCI-H522) was > 100 µM (inactive), the GI50 (OVCAR-5) was > 100 µM (inactive) and the GI50 (OVCAR-8) was > 100 µM (inactive). For the same compound, the GI50 (RXF 393) was > 100 µM (inactive), the GI50 (RXF 631) was > 100 µM (inactive) and the GI50 (SF-268) was > 100 µM (inactive). The GI50 (SF-295) was > 100 µM (inactive), the GI50 (SK-MEL-28) was > 100 µM (inactive) and the GI50 (SK-OV-3) was > 100 µM (inactive). The GI50 (SNB-19) was > 100 µM (inactive), the GI50 (SNB-78) was > 100 µM (inactive) and the GI50 (SR) was > 100 µM (inactive). The GI50 (TK-10) was > 100 µM (inactive), the GI50 (U-251) was > 100 µM (inactive) and the GI50 (UACC-257) was > 100 µM (inactive). The GI50 (UO-31) was > 100 µM (inactive).

For `C=CC[P@]1(=O)O[C@H](c2ccccc2)C(C)N1C(C)C` (stereo partly specified), the GI50 (786-0) was > 100 µM (inactive), the GI50 (A498) was > 100 µM (inactive) and the GI50 (A549) was > 100 µM (inactive). The GI50 (ACHN) was > 100 µM (inactive), the GI50 (CCRF-CEM) was > 100 µM (inactive) and the GI50 (COLO 205) was > 100 µM (inactive). For the same compound, the GI50 (DLD-1) was > 100 µM (inactive), the GI50 (DMS-114) was > 100 µM (inactive) and the GI50 (EKVX) was > 100 µM (inactive). For the same compound, the GI50 (HCC 2998) was > 100 µM (inactive), the GI50 (HCT-116) was > 100 µM (inactive) and the GI50 (HCT-15) was greater than 100 µM. The GI50 (HL-60) was > 100 µM (inactive), the GI50 (HOP-18) was > 100 µM (inactive) and the GI50 (HOP-62) was > 100 µM (inactive). The GI50 (HOP-92) was > 100 µM (inactive), the GI50 (HT-29) was > 100 µM (inactive) and the GI50 (IGROV-1) was > 100 µM (inactive). The GI50 (K562) was > 100 µM (inactive), the GI50 (KM-20L2) was > 100 µM (inactive) and the GI50 (KM12) was > 100 µM (inactive). The GI50 (LOX IMVI) was > 100 µM (inactive), the GI50 (LXFL 529) was > 100 µM (inactive) and the GI50 (M14) was > 100 µM (inactive). For the same compound, the GI50 (M19-MEL) was > 100 µM (inactive), the GI50 (MOLT-4) was > 100 µM (inactive) and the GI50 (Malme-3M) was > 100 µM (inactive). The GI50 (NCI-H226) was > 100 µM (inactive), the GI50 (NCI-H23) was > 100 µM (inactive) and the GI50 (NCI-H460) was > 100 µM (inactive). For the same compound, the GI50 (NCI-H522) was > 100 µM (inactive), the GI50 (OVCAR-3) was > 100 µM (inactive) and the GI50 (OVCAR-5) was > 100 µM (inactive). The GI50 (OVCAR-8) was > 100 µM (inactive), the GI50 (RPMI-8226) was > 100 µM (inactive) and the GI50 (RXF 393) was > 100 µM (inactive). For the same compound, the GI50 (RXF 631) was > 100 µM (inactive), the GI50 (SF-268) was > 100 µM (inactive) and the GI50 (SF-295) was > 100 µM (inactive). For the same compound, the GI50 (SF-539) was > 100 µM (inactive), the GI50 (SK-MEL-28) was > 100 µM (inactive) and the GI50 (SK-MEL-2) was > 100 µM (inactive). The GI50 (SK-MEL-5) was > 100 µM (inactive), the GI50 (SK-OV-3) was > 100 µM (inactive) and the GI50 (SN12C) was > 100 µM (inactive). The GI50 (SNB-19) was > 100 µM (inactive), the GI50 (SNB-75) was > 100 µM (inactive) and the GI50 (SR) was > 100 µM (inactive). The GI50 (SW-620) was > 100 µM (inactive), the GI50 (TK-10) was > 100 µM (inactive) and the GI50 (U-251) was > 100 µM (inactive). For the same compound, the GI50 (UACC-257) was > 100 µM (inactive), the GI50 (UACC-62) was > 100 µM (inactive) and the GI50 (UO-31) was > 100 µM (inactive). For the same compound, the GI50 (XF498) was > 100 µM (inactive).
